Source: patent US20260315464A1, “COMPOSITIONS, METHODS, AND SYSTEMS FOR MODULATING SPLICING OF MSH3” (REVIR THERAPEUTICS, INC., priority 2023, published 2026)

Tested on: MSH3
Experiment: QPCR assay for levels of MSH3 upon compound treatment in HEK293T or AD293 cells (fold-change of MSH3 transcript, EC50 of MSH3 downregulation; total MSH3 exons 13/14, exons 20/21; Table 8)
Format: cell-based
Conditions: for mrna remaining at 1 µM / mrna remaining at 10 µM: Homo sapiens, fold-change of the MSH3 transcript, normalized to GAPDH; for mrna remaining at 1 µM: 1 μM compound; for mrna remaining at 10 µM: 10 μM compound; for EC50: EC50 of MSH3 downregulation, XtalPi
Method: HEK293T or AD293 cells were treated with Compound 274 at 1 μM and […]. RNA, cDNA and qPCR was prepared using TaqMan Cells-to-CT Express kit (ThermoFisher Scientific). Taqman assays (ThermoFisher Scientific) were used for quantification of total MSH3 exons 13/14 (cat #4351372, ID #: Hs00988993_ml), total MSH3 exons 20/21 (cat #4351372, ID #: Hs00989000_ml), exon 13/PE14A (Fwd: 5′-[…]; Rev: 5′-[…]; Probe: 5′-[…]) and exon 20/PE21A (Fwd: 5′-[…]; Rev: 5′-[…]; Probe: 5′-[…]) mRNA expression. Taqman GAPDH (cat #4448489, ID #: Hs02758991_g1) was used as a reference for data normalization.

Row | Structure (SMILES) | mrna remaining at 1 µM [%] | mrna remaining at 10 µM [%] | EC50 [nM]
1 | CC(C)(O)Cn1cc(-c2cc3c(cn2)CN(c2ccc(OC4CC(C)(C)NC(C)(C)C4)nn2)C3=O)cn1 [Compound 21, 6-(1-(2-hydroxy-2-methylpropyl)-1H-pyrazol-4-yl)-2-(6-((2,2,6,6-tetramethylpiperidin-4-yl)oxy)pyridazin-3-yl)-2,3-dihydro-1H-pyrrolo[3,4-c]pyridin-1-one] | 54 | 58 | 
2 | Cc1nn(C)cc1-c1cc2c(cn1)CN(c1ccc(N(C)C3CC(C)(C)NC(C)(C)C3)nn1)C2=O [Compound 51, 6-(1,3-dimethyl-1H-pyrazol-4-yl)-2-(6-(methyl(2,2,6,6-tetramethylpiperidin-4-yl)amino)pyridazin-3-yl)-2,3-dihydro-1H-pyrrolo[3,4-c]pyridin-1-one] | 94 | 26 | 
3 | Cc1nn(C)cc1-c1cc2c(cn1)CN(c1cnc(N(C)[C@H]3C[C@]4(C)CC[C@](C)(C3)N4)nn1)C2=O [Compound 55, 6-(1,3-dimethyl-1H-pyrazol-4-yl)-2-(3-(((1R,3s,5S)-1,5-dimethyl-8-azabicyclo[3.2.1]octan-3-yl)(methyl)amino)-1,2,4-triazin-6-yl)-2,3-dihydro-1H-pyrrolo[3,4-c]pyridin-1-one] | 56 | 20 | 
4 | Cc1nn(C)cc1-c1cc2c(cn1)CN(c1ccc(OC3CC(C)(C)NC4(CC4)C3)nn1)C2=O (centres unmarked) [Compound 59, 6-(1,3-dimethyl-1H-pyrazol-4-yl)-2-(6-((5,5-dimethyl-4-azaspiro[2.5]octan-7-yl)oxy)pyridazin-3-yl)-2,3-dihydro-1H-pyrrolo[3,4-c]pyridin-1-one] | 101 | 29 | 
5 | CN(c1ccc(N2Cc3cnc(-c4cn(C)nc4C(F)(F)F)cc3C2=O)nn1)[C@H]1C[C@]2(C)CC[C@](C)(C1)N2 [Compound 61, 2-(6-(((1R,3s,5S)-1,5-dimethyl-8-azabicyclo[3.2.1]octan-3-yl)(methyl)amino)pyridazin-3-yl)-6-(1-methyl-3-(trifluoromethyl)-1H-pyrazol-4-yl)-2,3-dihydro-1H-pyrrolo[3,4-c]pyridin-1-one] | 44 | 18 | 
6 | Cc1nc(C)c(-c2cc3c(cn2)CN(c2ccc(N(C)[C@H]4C[C@]5(C)CC[C@](C)(C4)N5)nn2)C3=O)s1 [Compound 62, 2-(6-(((1R,3s,5S)-1,5-dimethyl-8-azabicyclo[3.2.1]octan-3-yl)(methyl)amino)pyridazin-3-yl)-6-(2,4-dimethylthiazol-5-yl)-2,3-dihydro-1H-pyrrolo[3,4-c]pyridin-1-one] | 18 | 8 | 690
7 | Cc1nc(C)c(-c2cc3c(cn2)CN(c2ccc(O[C@H]4C[C@]5(C)CC[C@](C)(C4)N5)nn2)C3=O)s1 [Compound 69, 2-(6-(((1R,3s,5S)-1,5-dimethyl-8-azabicyclo[3.2.1]octan-3-yl)oxy)pyridazin-3-yl)-6-(2,4-dimethylthiazol-5-yl)-2,3-dihydro-1H-pyrrolo[3,4-c]pyridin-1-one] | 30 | 11 | 885
8 | CN(c1ccc(N2Cc3cnc(-c4cnn(C)n4)cc3C2=O)nn1)[C@H]1C[C@]2(C)CC[C@](C)(C1)N2 [Compound 70, 2-(6-(((1R,3s,5S)-1,5-dimethyl-8-azabicyclo[3.2.1]octan-3-yl)(methyl)amino)pyridazin-3-yl)-6-(2-methyl-2H-1,2,3-triazol-4-yl)-2,3-dihydro-1H-pyrrolo[3,4-c]pyridin-1-one] | 139 | 56 | 
9 | CN(c1ncc(N2Cc3cnc(-c4cnn(C)n4)cc3C2=O)nn1)[C@H]1C[C@]2(C)CC[C@](C)(C1)N2 [Compound 73, 2-(3-(((1R,3s,5S)-1,5-dimethyl-8-azabicyclo[3.2.1]octan-3-yl)(methyl)amino)-1,2,4-triazin-6-yl)-6-(2-methyl-2H-1,2,3-triazol-4-yl)-2,3-dihydro-1H-pyrrolo[3,4-c]pyridin-1-one] | 85 | 70 | 
10 | Cn1cc(-c2cc3c(cn2)CN(c2ccc(O[C@H]4C[C@]5(C)CC[C@](C)(C4)N5)nn2)C3=O)c(C(F)(F)F)n1 [Compound 74, 2-(6-(((1R,3s,5S)-1,5-dimethyl-8-azabicyclo[3.2.1]octan-3-yl)oxy)pyridazin-3-yl)-6-(1-methyl-3-(trifluoromethyl)-1H-pyrazol-4-yl)-2,3-dihydro-1H-pyrrolo[3,4-c]pyridin-1-one] | 96 | 33 | 
11 | Cc1nn(C)cc1-c1cc2c(cn1)CN(c1ccc(OC3CC(C)(C)NC(C)(C)C3)nn1)C2=O [Compound 76, 6-(1,3-dimethyl-1H-pyrazol-4-yl)-2-(6-((2,2,6,6-tetramethylpiperidin-4-yl)oxy)pyridazin-3-yl)-2,3-dihydro-1H-pyrrolo[3,4-c]pyridin-1-one] | 98 | 20 | 
12 | Cc1nn(C)cc1-c1cc2c(cn1)CN(c1ccc(O[C@@H]3C[C@@]4(C)CC[C@](C)(N4)[C@@H]3F)nn1)C2=O [Compound 79, 6-(1,3-dimethyl-1H-pyrazol-4-yl)-2-(6-(((1S,2S,3R,5R)-2-fluoro-1,5-dimethyl-8-azabicyclo[3.2.1]octan-3-yl)oxy)pyridazin-3-yl)-2,3-dihydro-1H-pyrrolo[3,4-c]pyridin-1-one] | 92 | 31 | 
13 | Cc1nn(C)cc1-c1cc2c(c(Cl)n1)CN(c1ccc(N(C)[C@H]3C[C@]4(C)CC[C@](C)(C3)N4)nn1)C2=O [Compound 90, 4-chloro-6-(1,3-dimethyl-1H-pyrazol-4-yl)-2-(6-(((1R,3s,5S)-1,5-dimethyl-8-azabicyclo[3.2.1]octan-3-yl)(methyl)amino)pyridazin-3-yl)-2,3-dihydro-1H-pyrrolo[3,4-c]pyridin-1-one] | 38 | 18 | 
14 | Cn1cc(-c2cc3c(cn2)CN(c2ccc(OC4CC(C)(C)NC(C)(C)C4)nn2)C3=O)c(F)n1 [Compound 91, 6-(3-fluoro-1-methyl-1H-pyrazol-4-yl)-2-(6-((2,2,6,6-tetramethylpiperidin-4-yl)oxy)pyridazin-3-yl)-2,3-dihydro-1H-pyrrolo[3,4-c]pyridin-1-one] | 85 | 74 | 
15 | Cc1nn(C)cc1-c1cc2c(c(Cl)n1)CN(c1ccc(O[C@H]3C[C@]4(C)CC[C@](C)(C3)N4)nn1)C2=O [Compound 93, 4-chloro-6-(1,3-dimethyl-1H-pyrazol-4-yl)-2-(6-(((1R,3s,5S)-1,5-dimethyl-8-azabicyclo[3.2.1]octan-3-yl)oxy)pyridazin-3-yl)-2,3-dihydro-1H-pyrrolo[3,4-c]pyridin-1-one] | 91 | 72 | 
16 | Cc1nn(C)cc1-c1cc2c(cn1)CN(c1ccc(O[C@H]3C[C@]4(C)CC[C@](C)(C3)N4C)nn1)C2=O [Compound 94, 6-(1,3-dimethyl-1H-pyrazol-4-yl)-2-(6-(((1R,3s,5S)-1,5,8-trimethyl-8-azabicyclo[3.2.1]octan-3-yl)oxy)pyridazin-3-yl)-2,3-dihydro-1H-pyrrolo[3,4-c]pyridin-1-one] | 106 | 79 | 
17 | Cc1nn(C)nc1-c1cc2c(cn1)CN(c1ccc(O[C@H]3C[C@]4(C)CC[C@](C)(C3)N4)nn1)C2=O [Compound 96, 6-(2,5-dimethyl-2H-1,2,3-triazol-4-yl)-2-(6-(((1R,3s,5S)-1,5-dimethyl-8-azabicyclo[3.2.1]octan-3-yl)oxy)pyridazin-3-yl)-2,3-dihydro-1H-pyrrolo[3,4-c]pyridin-1-one] | 79 | 119 | 
18 | CC[C@]12CC[C@](C)(C[C@@H](Oc3ccc(N4Cc5cnc(-c6cn(C)nc6C)cc5C4=O)nn3)C1)N2 [Compound 98, 6-(1,3-dimethyl-1H-pyrazol-4-yl)-2-(6-(((1S,3R,5R)-1-ethyl-5-methyl-8-azabicyclo[3.2.1]octan-3-yl)oxy)pyridazin-3-yl)-2,3-dihydro-1H-pyrrolo[3,4-c]pyridin-1-one] | 83 | 25 | 
19 | Cn1cc(-c2cc3c(cn2)CN(c2ccc(O[C@H]4C[C@]5(C)CC[C@](C)(C4)N5)nn2)C3=O)cn1 [Compound 99, 2-(6-(((1R,3s,5S)-1,5-dimethyl-8-azabicyclo[3.2.1]octan-3-yl)oxy)pyridazin-3-yl)-6-(1-methyl-1H-pyrazol-4-yl)-2,3-dihydro-1H-pyrrolo[3,4-c]pyridin-1-one] | 90 | 86 | 
20 | CC[C@]12CC[C@](CC)(C[C@@H](Oc3ccc(N4Cc5cnc(-c6cn(C)nc6C)cc5C4=O)nn3)C1)N2 [Compound 100, 2-(6-(((1R,3s,5S)-1,5-diethyl-8-azabicyclo[3.2.1]octan-3-yl)oxy)pyridazin-3-yl)-6-(1,3-dimethyl-1H-pyrazol-4-yl)-2,3-dihydro-1H-pyrrolo[3,4-c]pyridin-1-one] | 65 | 11 | 
21 | Cn1ncc(-c2cc3c(c(Cl)n2)CN(c2ccc(O[C@H]4C[C@]5(C)CC[C@](C)(C4)N5)nn2)C3=O)n1 [Compound 106, 4-chloro-2-(6-(((1R,3s,5S)-1,5-dimethyl-8-azabicyclo[3.2.1]octan-3-yl)oxy)pyridazin-3-yl)-6-(2-methyl-2H-1,2,3-triazol-4-yl)-2,3-dihydro-1H-pyrrolo[3,4-c]pyridin-1-one] | 121 | 130 | 
